The values below come from PMC4635063 (Cephalalgia : an international journal of headache, 2015).

In assay [1] the target is T1, TRPM8 (transient receptor potential channel M8) (Rattus norvegicus, UniProt Q8R455). The experiment in a line: aequorin luminescence calcium assay in CHO cells, inhibition of icilin. The format is cell-based.
The target in assay [2] is T1, TRPM8 (transient receptor potential channel M8). Briefly: agonist. The format is cell-based.

T1 sequence (Q8R455 whole entry): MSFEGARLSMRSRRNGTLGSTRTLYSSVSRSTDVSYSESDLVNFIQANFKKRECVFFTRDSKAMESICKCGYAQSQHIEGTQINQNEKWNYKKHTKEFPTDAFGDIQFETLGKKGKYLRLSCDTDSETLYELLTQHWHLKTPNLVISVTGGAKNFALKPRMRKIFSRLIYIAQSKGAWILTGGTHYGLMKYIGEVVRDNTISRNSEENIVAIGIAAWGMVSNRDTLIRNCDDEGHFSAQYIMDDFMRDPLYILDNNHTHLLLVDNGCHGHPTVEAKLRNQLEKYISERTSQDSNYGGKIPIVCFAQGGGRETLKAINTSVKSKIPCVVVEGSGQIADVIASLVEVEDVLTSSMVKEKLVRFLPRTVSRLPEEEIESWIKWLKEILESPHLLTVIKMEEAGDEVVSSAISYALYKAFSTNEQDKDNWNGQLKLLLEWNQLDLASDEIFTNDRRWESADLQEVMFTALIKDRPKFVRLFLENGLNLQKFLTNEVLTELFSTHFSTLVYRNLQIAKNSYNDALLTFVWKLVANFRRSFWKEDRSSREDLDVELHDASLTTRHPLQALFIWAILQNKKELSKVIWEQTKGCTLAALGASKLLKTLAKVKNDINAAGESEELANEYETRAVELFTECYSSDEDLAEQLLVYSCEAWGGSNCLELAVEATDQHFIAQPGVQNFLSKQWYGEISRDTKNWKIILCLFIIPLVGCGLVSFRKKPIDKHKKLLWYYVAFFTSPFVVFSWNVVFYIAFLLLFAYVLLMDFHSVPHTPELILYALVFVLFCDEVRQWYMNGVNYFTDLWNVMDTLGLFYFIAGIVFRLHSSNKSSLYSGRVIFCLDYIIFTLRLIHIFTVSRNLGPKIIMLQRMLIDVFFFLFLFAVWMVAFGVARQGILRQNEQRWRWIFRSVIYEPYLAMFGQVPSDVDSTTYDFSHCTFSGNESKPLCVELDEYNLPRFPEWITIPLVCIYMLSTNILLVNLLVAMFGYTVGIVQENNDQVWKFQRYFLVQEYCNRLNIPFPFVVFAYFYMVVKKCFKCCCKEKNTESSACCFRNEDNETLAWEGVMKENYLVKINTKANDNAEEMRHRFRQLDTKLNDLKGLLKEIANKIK

Turning to AMG1161, the IC50 (as a rule, the point on the concentration scale where inhibition reaches its midpoint) in assay [1] worked out at 23 ± 0.9 nM.

Turning to `O=C1NC(c2cccc([N+](=O)[O-])c2)=CCN1c1ccccc1O` [icilin], in assay [2], the “agonist (1 uM) in aequorin luminescence calcium assay in CHO cells” value is “inhibition of TRPM8 activation by icilin and cold in cultured CHO cells stably transfected with rat TRPM8 channel”.
